“And” between values parts separate entries of the source, which are not always exact repeats. Equal entries are not always repeated.
Assay: xn = mol fraction of the nth substance listed
Conditions: x2 = 0.79; for electrical conductivity / mass density: 100 kPa, Liquid; for electrical conductivity: Alternating current cell with electrodes; for mass density: Buoyancy - hydrostatic balance; for surface tension liquid-gas: Maximal bubble pressure

[Ca+2].[F-].[F-] [calcium fluoride] + [F-].[Li+]
Conditions | electrical conductivity [S/m] | mass density | surface tension liquid-gas [mN/m]
1063.8 K | 0.053003 | – | –
1065.5 K | 0.053101 | – | –
1067.1 K | 0.053153 | – | –
1068.8 K | 0.05333 | – | –
1070.4 K | 0.05353 | – | –
1071.9 K | 0.05375 | – | –
1073.5 K | 0.05359 | – | –
1075.2 K | 0.0537 | – | –
1075.7 K | – | 2107.8 kg/m3 | –
1075.9 K | – | 2107.3 kg/m3 | –
1076.2 K | – | 2106.7 kg/m3 and 2107.8 kg/m3 | –
1076.7 K | – | 2106.6 kg/m3 | –
1076.8 K | 0.05368 | 2106 kg/m3 | –
1077.1 K | – | 2106 kg/m3 | –
1077.5 K | – | 2105.4 kg/m3 | –
1077.7 K | – | 2104.8 kg/m3 | –
1078 K | – | 2104.8 kg/m3 | –
1078.4 K | – | 2104.2 kg/m3 | –
1078.5 K | 0.05386 | – | –
1078.7 K | – | 2104.1 kg/m3 | –
1079.1 K | – | 2103.5 kg/m3 | –
1079.4 K | – | 2103.5 kg/m3 | –
1079.8 K | – | 2102.9 kg/m3 | –
1080 K | – | 2102.9 kg/m3 | –
1080.1 K | 0.05394 | – | –
1080.3 K | – | 2102.3 kg/m3 | –
1080.7 K | – | 2101.7 kg/m3 | –
1081.1 K | – | 2101.6 kg/m3 | –
1081.4 K | – | 2101 kg/m3 | –
1081.8 K | 0.054 | 2101 kg/m3 | –
1082 K | – | 2100.4 kg/m3 | –
1082.4 K | – | 2099.8 kg/m3 | –
1082.9 K | – | 2099.7 kg/m3 | –
1083.4 K | 0.0542 | – | –
1083.5 K | – | 2099.1 kg/m3 | –
1083.6 K | – | 2099.1 kg/m3 | –
1083.8 K | – | 2098.5 kg/m3 | –
1084.3 K | – | 2098.5 kg/m3 | –
1084.5 K | – | 2097.9 kg/m3 | –
1085 K | – | 2097.8 kg/m3 | –
1085.1 K | 0.05436 | – | –
1085.5 K | – | 2097.2 kg/m3 | –
1085.9 K | – | 2096.6 kg/m3 | –
1086.1 K | – | 2096.6 kg/m3 | –
1086.4 K | – | 2096 kg/m3 | –
1086.8 K | 0.05455 | – | –
1086.9 K | – | 2095.9 kg/m3 | –
1087.2 K | – | 2095.3 kg/m3 | –
1087.8 K | – | 2094.7 kg/m3 | –
1088.2 K | – | 2094.7 kg/m3 | –
1088.4 K | 0.05469 | – | –
1088.6 K | – | 2094.1 kg/m3 | –
1088.8 K | – | 2094 kg/m3 | –
1089.3 K | – | 2093.4 kg/m3 | –
1089.5 K | – | 2092.8 kg/m3 | –
1090 K | – | 2092.8 kg/m3 | –
1090.1 K | 0.05496 | – | –
1090.5 K | – | 2092.2 kg/m3 | –
1090.8 K | – | 2092.1 kg/m3 | –
1091.2 K | – | 2093.7 kg/m3 | –
1091.7 K | – | 2093.7 kg/m3 | –
1091.8 K | 0.05506 | – | –
1091.9 K | – | 2093.1 kg/m3 | –
1092.8 K | – | 2091.9 kg/m3 and 2092.4 kg/m3 | –
1093.1 K | – | 2091.3 kg/m3 | –
1093.4 K | 0.05525 | – | –
1093.8 K | – | 2091.2 kg/m3 | –
1094.1 K | – | 2090.6 kg/m3 | –
1094.4 K | – | 2090.6 kg/m3 | –
1094.8 K | – | 2092.8 kg/m3 | –
1095 K | – | 2092.2 kg/m3 | –
1095.1 K | 0.05547 | – | –
1095.5 K | – | 2092.1 kg/m3 | –
1096.2 K | – | 2090.9 kg/m3 | –
1096.3 K | – | 2090.9 kg/m3 and 2091.5 kg/m3 | –
1096.7 K | – | 2090.3 kg/m3 | –
1096.8 K | 0.0556 | – | –
1096.9 K | – | 2089.7 kg/m3 | –
1097.3 K | – | 2089.1 kg/m3 | –
1097.6 K | – | 2089.1 kg/m3 | –
1098 K | – | 2088.5 kg/m3 | –
1098.4 K | – | 2087.9 kg/m3 | –
1098.5 K | 0.05571 | – | –
1098.8 K | – | 2087.3 kg/m3 | –
1099.1 K | – | 2087.2 kg/m3 | –
1099.5 K | – | 2086.6 kg/m3 | –
1099.9 K | – | 2086 kg/m3 | –
1100.2 K | 0.05586 | 2086 kg/m3 | –
1100.7 K | – | 2085.4 kg/m3 | –
1101 K | – | 2084.8 kg/m3 | –
1101.5 K | – | 2084.2 kg/m3 | –
1101.8 K | – | 2084.1 kg/m3 | –
1101.9 K | 0.05606 | – | –
1102.1 K | – | 2083.6 kg/m3 | –
1102.6 K | – | 2082.9 kg/m3 | –
1102.9 K | – | 2082.4 kg/m3 | –
1103.2 K | – | 2082.3 kg/m3 | –
1103.6 K | 0.05634 | – | –
1103.8 K | – | 2081.7 kg/m3 | –
1104.2 K | – | 2081.1 kg/m3 | –
1104.6 K | – | 2080.5 kg/m3 | –
1105.2 K | – | 2079.9 kg/m3 | –
1105.3 K | 0.05637 | – | –
1105.5 K | – | 2079.3 kg/m3 | –
1105.7 K | – | 2079.2 kg/m3 | –
1106.3 K | – | 2078.6 kg/m3 | –
1106.6 K | – | 2078 kg/m3 | –
1107 K | – | 2077.4 kg/m3 | –
1107.1 K | 0.05654 | – | –
1107.6 K | – | 2077.4 kg/m3 | –
1107.9 K | – | 2076.8 kg/m3 | –
1108.5 K | – | 2076.1 kg/m3 | –
1108.8 K | 0.05671 | 2076.1 kg/m3 | –
1109.1 K | – | 2074.4 kg/m3 | –
1109.5 K | – | 2073.8 kg/m3 | –
1110 K | – | 2073.2 kg/m3 | –
1110.3 K | – | 2073.1 kg/m3 | –
1110.5 K | 0.05682 | – | –
1110.6 K | – | 2072 kg/m3 | –
1111.2 K | – | 2071.9 kg/m3 | –
1111.6 K | – | 2071.3 kg/m3 | –
1111.8 K | – | 2070.8 kg/m3 | –
1112 K | – | – | 221.4
1112.3 K | 0.05703 | 2070.1 kg/m3 | –
1112.8 K | – | 2069.5 kg/m3 | –
1113 K | – | 2069.5 kg/m3 | –
1113.5 K | – | 2068.9 kg/m3 | –
1114 K | 0.05718 | – | –
1114.2 K | – | 2068.3 kg/m3 | –
1114.3 K | – | 2068.2 kg/m3 | –
1114.7 K | – | 2067.1 kg/m3 and 2067.6 kg/m3 | –
1114.9 K | – | 2066.5 kg/m3 | –
1115.4 K | – | 2066.4 kg/m3 | –
1115.7 K | 0.05729 | 2065.9 kg/m3 | –
1115.9 K | – | 2065.3 kg/m3 | –
1116.2 K | – | 2064.7 kg/m3 | –
1116.7 K | – | 2064.6 kg/m3 | –
1117 K | – | 2064 kg/m3 | –
1117.4 K | 0.05756 | – | –
1117.5 K | – | 2063.4 kg/m3 | –
1118 K | – | 2068.9 kg/m3 | –
1118.4 K | – | 2068.3 kg/m3 | –
1118.8 K | – | 2067.7 kg/m3 | –
1119 K | – | 2067.7 kg/m3 | –
1119.2 K | 0.05765 | – | –
1119.4 K | – | 2067.1 kg/m3 | –
1119.7 K | – | 2066.5 kg/m3 | –
1120.1 K | – | 2065.9 kg/m3 | –
1120.5 K | – | 2065.8 kg/m3 | –
1120.9 K | 0.0578 | – | –
1121 K | – | 2069.1 kg/m3 | –
1121.2 K | – | 2068.5 kg/m3 | –
1121.7 K | – | 2067.9 kg/m3 | –
1122.2 K | – | 2067.3 kg/m3 | –
1122.5 K | – | 2066.7 kg/m3 | –
1122.7 K | 0.05808 | – | –
1123.3 K | – | 2066.1 kg/m3 and 2066.6 kg/m3 | –
1123.7 K | – | 2065.5 kg/m3 | –
1124.4 K | 0.05824 | 2064.8 kg/m3 | –
1124.8 K | – | 2064.2 kg/m3 | –
1125.1 K | – | 2063.6 kg/m3 | –
1126 K | – | 2063.5 kg/m3 | –
1126.1 K | 0.05803 | – | –
1126.2 K | – | 2062.9 kg/m3 | –
1126.3 K | – | 2062.4 kg/m3 | –
1126.7 K | – | 2061.8 kg/m3 | –
1127.5 K | – | 2061.1 kg/m3 | –
1127.9 K | 0.05831 | 2060.5 kg/m3 and 2061.1 kg/m3 | –
1128.4 K | – | 2059.9 kg/m3 | –
1128.8 K | – | 2059.9 kg/m3 | –
1128.9 K | – | 2069.8 kg/m3 | –
1129.5 K | 0.0585 | – | –
1129.8 K | – | 2069.1 kg/m3 | –
1130.2 K | – | 2068.5 kg/m3 | –
1130.3 K | – | 2068 kg/m3 | –
1131 K | – | 2067.3 kg/m3 | 218.4
